Laboratory results from article PMC3910367 (Science signaling, 2013).
Read-outs that look alike come from different tables or passages of the source.

Tests used:
LNCaP and PC-3 cells = experiment: MTT viability assay in prostate cancer cells; format: cell-based; settings: read-out: IC50, antiproliferative effect (cell viability)
Akt = experiment: Western blot of Akt phosphorylation in prostate cancer cells; format: cell-based; settings: for phosphorylation at Ser473 in Akt / phosphorylation at Thr308 in Akt: LNCaP and PC-3 cells, 24 hours; for concentrations required to induce PHLPP1-mediated Akt inhibition: prostate cancer cells
[1] = test system: normal prostate epithelial cells; experiment: MTT viability assay in normal prostate epithelial cells; format: cell-based; settings: for apoptosis in normal prostate epithelial cells: fig. S1A
PIP3 = experiment: Radiometric analysis of phosphoinositide production; format: cell-based; settings: LNCaP cells, 500 μM, 6 hours
mTORC2 = experiment: Western blot of mTORC2 components and downstream targets; format: cell-based; settings: fig. S2C
PH domain of Akt = PH domain of Akt (Homo sapiens, UniProt P31749); experiment: SPR binding to GST-tagged PH domain of Akt; settings: read-out: Kd, wild-type Akt PH domain
Chain of PH domain of Akt (P31749 5-108 limits assumed): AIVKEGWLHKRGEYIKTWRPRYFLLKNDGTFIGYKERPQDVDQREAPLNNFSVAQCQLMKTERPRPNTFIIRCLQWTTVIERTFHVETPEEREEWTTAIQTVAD

LNCaP-abl cells = experiment: MTT viability assay in LNCaP-abl cells; format: cell-based; settings: read-out: IC50, antiproliferative effect, fig. S5D
LNCaP cells [2] = experiment: Cholesterol content of membrane subfractions; format: cell-based; settings: fractions 3 and 4
[3] = target: Y38G PH domain mutant of Akt (Homo sapiens, UniProt P31749, Y38G); experiment: SPR binding to Y38G Akt PH domain mutant; settings: versus wild-type PH domain
Chain of Y38G PH domain mutant of Akt (P31749 5-108 Y38G limits assumed): as the sequence (P31749 5-108 limits assumed) above, with Y34G counted along it

LNCaP cells [4] = format: cell-based; settings: 24 hours
PH domain of PHLPP1 = target: T1, PH domain of PHLPP1 (Homo sapiens, UniProt O60346); experiment: SPR binding to GST-tagged PH domain of PHLPP1
T1 sequence (O60346 536-636 limits assumed): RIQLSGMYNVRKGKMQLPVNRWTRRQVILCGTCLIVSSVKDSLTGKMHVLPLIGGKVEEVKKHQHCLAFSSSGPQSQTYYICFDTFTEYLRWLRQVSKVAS

| SMILES | IC50 (LNCaP and PC-3 cells; 24 h) | phosphorylation at Ser473 in Akt (Akt) | phosphorylation at Thr308 in Akt (Akt) | concentrations required to induce PHLPP1-mediated Akt inhibition (Akt) | apoptosis in normal prostate epithelial cells [1] | PIP3 concentrations (PIP3) | phosphorylation of SGK or PKCα (mTORC2 downstream targets) (mTORC2) | Kd (PH domain of Akt) | IC50 (LNCaP and PC-3 cells; LNCaP and PC-3 cells, MTT, 24 hours, serum-free medium) | IC50 (LNCaP-abl cells) | reduction of cholesterol content in raft domains (LNCaP cells [2]) | effect of Y38G mutation on binding affinity for the Akt PH domain [3] | decrease in phosphorylation of Ser473 in Akt in non-raft fractions (LNCaP cells [4]) | increase in association of PHLPP1 with the membrane in non-raft fractions (LNCaP cells [4]) | binding to PH domains of Akt and PHLPP1 compared (PH domain of PHLPP1) | IC50 ([1]; read-out: IC50, cell viability, MTT, 24 hours) |
| --- | --- | --- | --- | --- | --- | --- | --- | --- | --- | --- | --- | --- | --- | --- | --- | --- |
| Cc1c(C)c2c(c(C)c1O)CC[C@@](C)(CCC[C@H](C)CCC[C@H](C)CCCC(C)C)O2 [α-tocopherol] | ~400 µM | dose-dependently reduced | without altering | greater than 150 μM | resistant | unaffected | no effect |  |  |  |  |  |  |  |  |  |
| Cc1c(O)cc2c(c1C)O[C@](C)(CCC[C@H](C)CCC[C@H](C)CCCC(C)C)CC2 [γ-tocopherol] | 100 to 150 µM | dose-dependently reduced | without altering | greater than 150 μM | resistant |  | no effect |  |  |  |  |  |  |  |  |  |
| Cc1c(C)c2c(c(C)c1O)CCC(C)(CCCC(C)C)O2 (stereo not drawn) [α-VE5] |  | parallel reduction | without disturbing |  |  |  | lack of changes | 3.4 µM | 15 to 20 µM | 10 µM | ≤ 30% | significantly enhanced | more than 65% | more than 2.5 fold | equal potency | ~50 µM |
